Usually EC50 stands for the concentration giving half of the maximal effect. The low end stands for higher potency in that assay, the high end for lower potency in that assay.

For test [1], the target named is T1, human α1A-adrenergic receptor (Homo sapiens, UniProt P35348).
T1 sequence (P35348 1-466): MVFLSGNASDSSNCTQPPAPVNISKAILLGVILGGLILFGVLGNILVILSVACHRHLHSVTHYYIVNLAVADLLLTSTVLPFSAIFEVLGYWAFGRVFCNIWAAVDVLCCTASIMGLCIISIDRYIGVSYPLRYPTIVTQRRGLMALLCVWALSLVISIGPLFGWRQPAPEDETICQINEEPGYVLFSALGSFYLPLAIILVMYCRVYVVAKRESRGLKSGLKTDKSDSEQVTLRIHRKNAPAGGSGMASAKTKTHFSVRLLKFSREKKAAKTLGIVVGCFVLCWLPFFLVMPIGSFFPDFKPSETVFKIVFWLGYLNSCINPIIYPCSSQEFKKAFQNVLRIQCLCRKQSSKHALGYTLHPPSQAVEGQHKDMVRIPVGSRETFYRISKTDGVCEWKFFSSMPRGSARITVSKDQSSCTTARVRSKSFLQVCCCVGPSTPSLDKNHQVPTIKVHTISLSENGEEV
In words: Test Case 4-A: human α1A-adrenergic receptor agonist activity (HEK293, Ca flux, Fura-2). The class given is cell-based. Details: expressed in transfected cells; host or cells: HEK293 cells, pcDNA3.1. As to conditions: for Emax: HEK293, read-out: α1A receptor I.A.; for α1A receptor I.A. / EC50: Test Case 4-A, Table 4; for α1A receptor I.A.: maximum response of norepinephrine = 100%; for EC50: HEK293 cells, Ca flux. As to the method:
Measurement of Human α1A-Adrenergic Receptor Agonist Activity
The human α1A-adrenergic receptor agonist activity is measured using HEK293 cells transfected by a human α1A gene inserted in pcDNA3.1 (Invitrogen). […] After loading for 30 minutes in a CO2 incubator, the excess Fura-2AM is removed by washing twice with assay buffer. After preparing the centrifuged cells to make 5×10^6 cells/mL by assay buffer, 80 μL/well is dispensed into 96-well UV plates (made by Corning) to make cell plates. Sample plates with the test compound diluted 10-fold by assay buffer from 10^−5 to 10^−12 M and cell plates are set in an FDSS4000 (made by Hamamatsu Photonics). After preincubating for 180 seconds, measurement of fluorescence intensity (excitation wavelength 340 nm, 380 nm, measurement wavelength 500 nm) is begun at 2-second intervals. After approximately 30 seconds of measurement, 20 μL of test sample from a sample plate is added to the cell plate, and measurement is continued for another 270 seconds. The Ca flux caused by the test compound is calculated taking the difference in the maximum value of the fluorescence intensity ratio at 340 nm and 380 nm after adding the test compound and the fluorescence intensity ratio before adding the test compound as the peak height.

Test [2] concerns the target T2, human β3-adrenergic receptor (Homo sapiens, UniProt P13945).
T2 construct: A full-length human β3 gene is obtained from a human genomic library (made by Clontech) using this as the probe; expressed in transfected cells; host or cells: CHO (Chinese hamster ovary) cells, pcDNA3
In words: Test Case 1-B: human β3-adrenergic receptor agonist activity (cAMP-Screen, 96-well). Format: cell-based. As to conditions: for Emax: 0.5 h, read-out: β3 receptor I.A.; for EC50 / β3 receptor I.A.: Test Case 1-B; for EC50: CHO cells, cAMP; for β3 receptor I.A.: maximum response of isoproterenol = 100%. The procedure: Measurement of Human β3-Adrenergic Receptor Agonist Activity
The human β3-adrenergic receptor agonist activity is measured using CHO (Chinese hamster ovary) cells transfected by a human β3 gene inserted in pcDNA3 (Invitrogen). […] A full-length human β3 gene is obtained from a human genomic library (made by Clontech) using this as the probe. These cells are cultured in Ham's F-12 medium containing 10% fetal calf serum and 400 μg/mL genectin (Invitrogen). These cells are sown in 96-well plates to make 2×10^4 cells/well. After culturing for approximately 20 hours, they are allowed to stand for 15 minutes in 80 μL of serum-free Ham's F-12 medium. After first dissolving the test compound by DMSO, it is serially diluted by Ham's F-12 containing 100 mmol/L HEPES and 1 mmol/L isobutylmethylxanthine, and 20 μL is added to the cells. After culturing for 30 minutes, the medium is removed, and 0.1 mL of the assay/lysis buffer contained in the cAMP-Screen kit (made by Applied Bioscience) is added and incubated for 30 minutes at 37° C. The cAMP in this cell lysate is assayed by the above cAMP-Screen kit.

T2 sequence (P13945 whole entry): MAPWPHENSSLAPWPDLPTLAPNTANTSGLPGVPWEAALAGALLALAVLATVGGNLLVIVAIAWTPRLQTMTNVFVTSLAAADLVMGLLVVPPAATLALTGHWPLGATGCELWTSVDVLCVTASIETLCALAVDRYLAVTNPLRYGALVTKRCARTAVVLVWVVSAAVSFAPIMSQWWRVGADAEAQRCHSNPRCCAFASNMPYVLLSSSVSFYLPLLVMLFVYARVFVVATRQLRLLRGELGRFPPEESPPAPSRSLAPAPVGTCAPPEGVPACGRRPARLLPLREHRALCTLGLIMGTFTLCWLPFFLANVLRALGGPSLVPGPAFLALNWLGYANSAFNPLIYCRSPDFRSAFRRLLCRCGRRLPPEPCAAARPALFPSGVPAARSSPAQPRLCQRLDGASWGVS

On to `COc1cccc(S(=O)(=O)Nc2cccc([C@@H](O)CNCCOc3ccc4c(OC)n[nH]c4c3)c2)c1` [ex14, (R)-N-(3-(1-hydroxy-2-(2-(3-methoxyindazol-6-yloxy)ethylamino)ethyl)phenyl)-3-methoxy-b ? sulfonamide], for which the Emax in test [1] came out at 0%.
On to `COc1cccc(S(=O)(=O)Nc2cccc([C@@H](O)CNCCOc3ccc4c(OC)n[nH]c4c3)c2)c1` [ex15, (R)-N-(3-(1-hydroxy-2-(2-(3-methoxyindazol-6-yloxy)ethylamino)ethyl)phenyl)-3-methoxy-b ? sulfonamide], for which the “α1A receptor I.A.” value in test [1] is 0%.
As to `COc1n[nH]c2cc(OCCNC[C@H](O)c3cccc(NS(=O)(=O)C4CCC4)c3)ccc12` [ex38, (R)-N-(3-(1-hydroxy-2-(2-(3-methoxyindazol-6-yloxy)-ethylamino)ethyl)phenyl)cyclo-butanesulfonamide], in test [2], the Emax was determined as 89% and the EC50 is 31 nM. In addition, in test [1], the Emax was found to be 75% and a half-maximal effect (EC50) was put at 378 nM.
Consider `Cc1n[nH]c2cc(OCCNC[C@H](O)c3cccc(NS(=O)(=O)CC(F)(F)F)c3)ccc12` [ex48, (R)-2,2,2-trifluoro-N-(3-(1-hydroxy-2-(2-(3-methylindazol-6-yloxy)ethylamino)ethyl)phenyl) ? sulfonamide], for which, in test [2], the Emax was determined as 48% and the EC50 was found to be 27 nM. Further, the Emax in test [1] is 29%.
As to `Cc1n[nH]c2cc(OCCNC[C@H](O)c3cccc(NS(=O)(=O)c4cn(C)cn4)c3)ccc12` [ex50, (R)-N-(3-(1-hydroxy-2-(2-(3-methylindazol-6-yloxy)ethylamino)ethyl)phenyl)-1-methylimidazole-4-sulfonamide], the Emax was 18% in test [2] and 0% in test [1].
For the compound `Cc1n[nH]c2cc(OCCNC[C@H](O)c3cccc(NS(=O)(=O)c4ccccc4Cl)c3)ccc12` [ex51, (R)-2-chloro-N-(3-(1-hydroxy-2-(2-(3-methylindazol-6-yloxy)ethylamino)ethyl)phenyl)ben-zenesulfonamide], in test [2], the Emax turned out to be 64% and the EC50 was determined as 146 nM. Further, in test [1], the Emax came out at 0%.
In the same order, the values of `Cc1n[nH]c2cc(OCCNC[C@H](O)c3cccc(NS(=O)(=O)c4ccc(Cl)cc4)c3)ccc12` [ex52, (R)-4-chloro-N-(3-(1-hydroxy-2-(2-(3-methylindazol-6-yloxy)ethylamino)ethyl)phenyl) benzenesulfonamide] are 62%, 248 nM and 0%.
For the compound `Cc1n[nH]c2cc(OCCNC[C@H](O)c3cccc(NS(=O)(=O)c4ccc(N)cc4)c3)ccc12` [ex54, (R)-4-amino-N-(3-(1-hydroxy-2-(2-(3-methylindazol-6-yloxy)ethylamino)ethyl)phenyl) benzenesulfonamide], in test [2], the Emax was 48% and the EC50 is 125 nM. For the same compound, the Emax in test [1] turned out to be 0%.
As for `Cc1n[nH]c2cc(OCCNC[C@H](O)c3cccc(NS(=O)(=O)c4ccccn4)c3)ccc12` [ex64, (R)-N-(3-(1-hydroxy-2-(2-(3-methylindazol-6-yloxy)ethylamino)ethyl)phenyl)pyridine-2-sulfonamide], in test [2], the Emax was 65% and the response was half-maximal at 208 nM (EC50).
In the same order, the values of `Cc1n[nH]c2cc(OCCNC[C@H](O)c3cccc(NS(=O)(=O)c4cccc(C(F)(F)F)c4)c3)ccc12` [ex65, (R)-N-(3-(1-hydroxy-2-(2-(3-methylindazol-6-yloxy)ethylamino)ethyl)phenyl)-3-(trifluoromethyl)-benzenesulfonamide] are 65% and 579 nM.
Take `Cc1n[nH]c2cc(OCCNC[C@H](O)c3cccc(NS(=O)(=O)c4cccc(OC(F)F)c4)c3)ccc12` [ex66, (R)-3-(difluoro-methoxy)-N-(3-(1-hydroxy-2-(2-(3-methylindazol-6-yloxy)ethylamino)ethyl)phenyl) benzenesulfonamide]: in test [2], the Emax is 88% and the EC50 is 291 nM.
In the same order, the values of `Cc1n[nH]c2cc(OCCNC[C@H](O)c3cccc(NS(=O)(=O)c4c(F)cccc4F)c3)ccc12` [ex69, (R)-2,6-difluoro-N-(3-(1-hydroxy-2-(2-(3-methylindazol-6-yloxy)ethylamino)ethyl)phenyl) benzenesulfonamide] are 72% and 594 nM.
As to `Cc1n[nH]c2cc(OCCNC[C@H](O)c3cccc(NS(=O)(=O)c4cc(F)c(F)c(F)c4)c3)ccc12` [ex77, (R)-3,4,5-trifluoro-N-(3-(1-hydroxy-2-(2-(3-methylindazol-6-yloxy)ethylamino)ethyl)phenyl) benzenesulfonamide], the “β3 receptor I.A.” value in test [2] was 59%.
Consider `O=S(=O)(Nc1cccc([C@@H](O)CNCCOc2ccc3c(OC(F)F)n[nH]c3c2)c1)C1CCC1` [ex115, (R)-N-(3-(2-(2-(3-(difluoromethoxy)-indazol-6-yloxy)ethylamino)-1-hydroxyethyl)phenyl)-cyclobutanesul-fonamide], for which, in test [2], the Emax was determined as 86% and the EC50 was determined as 15 nM. Moreover, in test [1], the Emax stood at 35% and the EC50 was 1100 nM.
Regarding `O=S(=O)(Nc1cccc([C@@H](O)CNCCOc2ccc3c(OC(F)F)n[nH]c3c2)c1)c1ccccn1` [ex117, (R)-N-(3-(2-(2-(3-(difluoromethoxy)-indazol-6-yloxy)ethylamino)-1-hydroxyethyl)phenyl)pyridine-2-sulfonamide], in test [2], the “β3 receptor I.A.” value was 54%. For the same compound, the “α1A receptor I.A.” value in test [1] amounted to 0%.
With `CCc1n[nH]c2cc(OCCNC[C@H](O)c3cccc(NS(=O)(=O)c4cccc(Cl)c4)c3)ccc12` [ex119, (R)-3-chloro-N-(3-(2-(2-(3-ethylindazol-6-yloxy)-ethylamino)-1-hydroxyethyl)-phenyl) benzenesulfonamide], in test [2], the Emax worked out at 47% and the EC50 was found to be 23 nM. The Emax in test [1] was found to be 0%.
In the same order, the values of `CCc1n[nH]c2cc(OCCNC[C@H](O)c3cccc(NS(=O)(=O)c4cccc(OC)c4)c3)ccc12` [ex120, (R)-N-(3-(2-(2-(3-ethylindazol-6-yloxy)ethylamino)-1-hydroxyethyl)phenyl)-3-methoxybenzene-sulfonamide] are 32%, 131 nM and 0%.
In the same order, the values of `CCc1n[nH]c2cc(OCCNC[C@H](O)c3cccc(NS(=O)(=O)c4cccnc4)c3)ccc12` [ex121, (R)-N-(3-(2-(2-(3-ethylindazol-6-yloxy)ethylamino)-1-hydroxyethyl)phenyl) pyridine-3-sulfonamide] are 53%, 2.8 nM and 0%.
`CCc1n[nH]c2cc(OCCNC[C@H](O)c3cccc(NS(=O)(=O)c4cccs4)c3)ccc12` [ex122, (R)-N-(3-(2-(2-(3-ethylindazol-6-yloxy)ethylamino)-1-hydroxyethyl)phenyl) thiophene-2-sulfonamide]: the Emax in test [2] amounted to 59%; in test [1], 0%. In test [2], this compound gave a concentration giving a half-maximal response (EC50) of 0.91 nM.
As for `Nc1cccc(S(=O)(=O)Nc2cc([C@@H](O)CNCCOc3ccc4c(C(F)(F)F)n[nH]c4c3)ccc2Cl)c1` [ex183, (R)-3-amino-N-(2-chloro-5-(1-hydroxy-2-(2-(3-(trifluoro-methyl)-indazol-6-yloxy)ethylamino)ethyl)phenyl)ben-zenesulfonamide], the “β3 receptor I.A.” value in test [2] is on record as 72%.
On to “(R)-N-(3-(1-hydroxy-2- (2-(3-methoxyindazol- 6-yloxy)-ethylamino) ethyl)phenyl)- ? benzenesulfonamide [ex40]”, for which the “β3 receptor I.A.” value in test [2] came out at 50%.

Source of the values: patent US20120225909A1, “INDAZOLE ANALOG” (priority 2009, published 2012).
